The record followed here is US20120157396A1, “PYRAZINAMIDE FOR IMMUNOSTIMULATION AND THE TREATMENT OF LEISHMANIASES” (priority 2009, published 2012).

Series [1] deals with L. major amastigotes. The series is described as follows: L. major amastigotes within J774 cells, parasite survival. Type of series: cell-based. On the procedure:
To distinguish between leishmaniostatic and leishmanicidal effects, a time course survival curve was generated for J774 cultures infected with L. major.
Amastigotes were generated by infecting J774 murine macrophages. Infections were carried after seeding cells in 8-well Labtek chambers (Thermo Physic Scientific, Rochester N.Y.) at a concentration of 5×10^4 cells/well. To avoid multiplication, cells were incubated with mitomycin C at a concentration of 0.8 μg/ml for 16 h. Infective-stage promastigotes (metacyclics) of L. major were isolated from stationary cultures (4-5 day-old) by Ficoll enrichment, added to macrophage cultures (5 promastigotes: 1 cell) and kept overnight at 37° C. in the presence of 5% CO2 and DMEM with 10% FCS. Sixteen hours later, non-internalized promastigotes were then washed and replaced by culture medium containing the drug. Forty-eight hours later, wells were detached from the slides, stained with Diff-Quick (Dade Behring, Newark, Del.) and counted under light microscope. Parasite burden was determined by observation under light microscopy (1000×) as the number of amastigotes per one hundred J774 cells. Percentage of survival of amastigotes and MIC50 were calculated as above.

Series [2] has as its system L. major promastigotes. The series is described as follows: L. major promastigote drug treatment, parasite survival after 48 h. Type of series: cell-based. The method, then:
The effect of PZA was first investigated with promastigotes of L. major. PZA was diluted in medium and added to cultures. After 48 h, parasite multiplication was determined by counting parasites in culture. […] Incubation of L. major with 1 μg/ml amphotericin B (as a positive control) caused 100% mortality of promastigotes and 90% of amastigotes.
Mid-log phase (day 3 of culture) L. major promastigotes were employed. Parasite concentration was adjusted to 10^6 promastigotes/ml and seeded into 96-well plates in a volume of 100 μl (final concentration, 10^5 promastigotes/well). PZA was tested in triplicate in a concentration gradient from 1,000-0.5 μg/ml and added to the wells containing the parasite in a volume of 100 μl. A negative control was included with three wells containing only parasites and medium. The positive control consisted of amphotericin B (1 μg/ml). This concentration was previously employed by us because this concentration is equivalent to drug concentrations achieved in human plasma. After 48 h of incubation at 26° C., 10 μL of each well was diluted in 90 μL of the vital colorant (trypan blue in PBS) and the parasites were quantified in a Neubauer chamber. Data was normalized as percentage of survival compared to untreated controls. The Lethal Dose 50 (LD50) was extrapolated from the graph as the concentration of the products that inhibited the parasitic growth at 50% of the values of the negative control.

Series [3] deals with J774 cells. The series is described as follows: Cytokine (ELISA) and nitric oxide (Griess test) production in J774 cells. Type of series: cell-based, murine. Conditions: amphotericin B at the doses tested (0.1-1 μg/ml). On the procedure:
The ability of J774 cells to produce cytokines in response to infection and/or treatment was also determined. Cells were infected, treated or activated as described above. The amount of the proinflammatory cytokines IL-12 and TNF-α (implicated in Thl response and parasite killing), as well as the repressive cytokine IL-10, was determined by ELISA in the culture supernatants. The level of nitric oxide was also determined in the same supernatants. PZA treatment alone increased cytokine production, especially IL-12 and TNF-α and NO release. […] Finally, to test the specificity of the immune activation by PZA, we determined the effect that amphotericin B treatment had on activation and cytokine expression by J774 cells.
J774 cells or bone marrow-derived cells were seeded onto 24-well plates at a concentration of 5×10^5 cells/ml. Twenty-four hours later, PZA was added to the wells at different concentrations in the absence or presence of L. major (1:5 parasite ratio). In some experiments, J774 cells were treated with amphotericin B (0.1, 0.5, or 1 μg/ml). Two control groups were also included in this experiment: a positive control of activation consisting in a group of uninfected cells treated with 100 ng/ml LPS and 10 IU IFN-γ as a positive control of activation, and a negative control of activation, consisting in uninfected, untreated cells. Cell cultures were maintained overnight, and then cultured for an additional 6 h with brefeldin A (10 μg/ml), harvested by scraping and fixed in 2% paraformaldehyde. Prior to staining, cells were incubated with an anti-Fc III/II receptor and 10% normal mouse serum (NMS) in PBS containing 0.1% BSA, 0.01% NaN3. Cells were permeabilized with saponin and stained for the surface markers CD80 (clone 16-10A1), CD86 (clone GL1), MHCI (clone 28-14-8), MHCII (clone M5/114.15.2) and for the cytokines IL-12p40/p70 (clone C17.8) and IL-10 (clone JESS-16E3). Incubations were carried out for 30 min on ice. All antibodies were purchased from BD Biosciences or eBioscience. For each sample, at least 50,000 cells were analyzed. The data were collected and analyzed using CELLQuest software and a FACScalibur flow cytometer (Becton Dickinson, San Jose, Calif.).
For orientation: An ELISA detects its analyte on a solid surface through an enzyme-linked reagent.

Series [4] relates to uninfected J774 cells. Format: cell-based. The method, then: The potential cytotoxicity of PZA toward the mammalian cell line was determined by co-incubation of PZA with uninfected J774 cells for 48 h (10^4 cells/well) in 96-well culture plates. […] At 200 μg/ml, the compound started to show signs of toxicity, resulting in mortality of 25% of the cell monolayer. […] The control drug amphotericin B caused 5% mortality of the cell monolayer at the concentration tested (1 μg/ml).
J774 cell viability following incubation with PZA was also determined. Cells were seeded onto 8-well Labtek chambers as above and incubated with different concentrations of PZA (up to 1 mg/ml) for 48 h, stained with Diff-Quick and counted under light microscope. The percentage of viable cells was determined after quantifying the number of cells present per field (in 25 fields, ca. 500 cells). Percentage of survival and MIC50 were calculated as above.

Turning to `NC(=O)c1cnc(F)cn1` [5-Fl PZA], the “MIC50 reduced relative to PZA” value in series [1] (L. major amastigotes within J774 cells) is on record as 100 fold. Moreover, in series [1] (L. major amastigotes within J774 cells (Table Ia)), the “MIC50 for PZA analogs” value is 0.08 μM.

For `C[C@@H]1[C@H](O)[C@@H](C)/C=C/C=C/C=C/C=C/C=C/C=C/C=C/[C@H](O[C@@H]2O[C@H](C)[C@@H](O)[C@H](N)[C@@H]2O)C[C@@H]2O[C@](O)(C[C@@H](O)C[C@@H](O)[C@H](O)CC[C@@H](O)C[C@@H](O)CC(=O)O[C@H]1C)C[C@H](O)[C@H]2C(=O)O` [Amphotericin B, amphotericin B], the mortality of promastigotes in series [2] (1 μg/ml amphotericin B) is listed as 100%. Further, the “percentage of survival compared to untreated control” value in series [2] (promastigote, Amphotericin B 1 μg/ml, 48 h) turned out to be 0%; in series [1] (amastigote in J774, Amphotericin B 1 μg/ml, 48 h), 10 ± 5%; in series [4] (uninfected J774 cells, Amphotericin B 1 μg/ml, 48 h), 95 ± 16%. Further, in series [1] (1 μg/ml amphotericin B), the mortality of amastigotes was found to be 90%. Moreover, in series [1] (amphotericin B 0.1 μg/ml, infected cells), the “elimination of parasites from macrophage cultures” value is listed as “total elimination of parasites”. Moreover, the “activation and cytokine expression of J774 cells” value in series [3] is “did not result in activation”. Moreover, the “mortality of the cell monolayer” value in series [4] (amphotericin B 1 μg/ml) is 5%.
